# Reference: EP1956016A1, “Bicyclic acyltryptophanols” (Bayer Schering Pharma Aktiengesellschaft, priority 2006, dated 2008)
# Biological target: T1, human FSH receptor (Homo sapiens, UniProt P23945)
# T1 construct: expressed in transfected cells; host or cells: CHO cells (hFSHR clone 16)
# T1 sequence (P23945 18-695): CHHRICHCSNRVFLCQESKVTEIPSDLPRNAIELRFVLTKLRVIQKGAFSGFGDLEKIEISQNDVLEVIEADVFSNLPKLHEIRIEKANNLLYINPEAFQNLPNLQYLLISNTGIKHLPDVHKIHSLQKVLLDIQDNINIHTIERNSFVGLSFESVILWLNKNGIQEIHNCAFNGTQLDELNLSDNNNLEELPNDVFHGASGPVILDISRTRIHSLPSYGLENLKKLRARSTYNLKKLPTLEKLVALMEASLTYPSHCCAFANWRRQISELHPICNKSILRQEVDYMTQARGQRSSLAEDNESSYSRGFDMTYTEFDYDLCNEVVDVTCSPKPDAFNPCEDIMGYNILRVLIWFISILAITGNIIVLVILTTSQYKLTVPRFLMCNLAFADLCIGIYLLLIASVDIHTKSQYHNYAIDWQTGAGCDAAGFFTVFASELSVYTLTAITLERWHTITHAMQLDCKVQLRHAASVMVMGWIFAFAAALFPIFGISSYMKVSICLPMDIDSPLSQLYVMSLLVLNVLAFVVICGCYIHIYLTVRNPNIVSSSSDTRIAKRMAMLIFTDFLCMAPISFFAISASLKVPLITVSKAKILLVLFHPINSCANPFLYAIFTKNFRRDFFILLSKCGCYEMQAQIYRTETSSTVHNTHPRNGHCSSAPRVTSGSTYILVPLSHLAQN
# Experiment: HTRF assay for measuring cAMP in cells (FSH antagonism)
# Format: cell-based
# Conditions: hFSHR clone 16 cells (CHO cells stably transfected with the human FSH receptor); in the presence of 1 e-9 mol/l hFSH; 37°C for 2h
# Description: HTRF assay for measuring cAMP in cells
# The method is based on a competitive immunoassay between native cAMP, which has been produced by the cells, and cAMP which is labelled with XL665. The tracer binding was visualized by a monoclonal antibody, anti-cAMP labelled with cryptate [HTRF = homogeneous time-resolved fluorescence].
# The specific signal is inversely proportional to the cAMP concentration of the samples employed.
# The 665nm/ 620nm fluorescence ratio was evaluated.
# The following material was used: 96-well plates for the tissue culture, 96-well plates with black edge and black base (e.g. Fluotrac 600 from Greiner), 96-well plates for the substance dilutions of polypropylene and CAMP Femtomolar (4000wells Kit, CIS Bio International # 62AM1PEC).
# The following reagents were used: BSA (bovine serum albumin) Fraction V protease-free, IBMX (3-isobutyl-1-methylxanthine), hFSH (human follicle stimulating hormone), Triton X-100 analytical grade, potassium fluoride analytical grade, G 418 (Geneticin) and Accutase.
# Buffer 1 (washing and testing buffer) contained PBS, 1 mM CaCl2, 1 mM MgCl2, 0.2% glucose; 0.1% BSA, 1 mM IBMX.
# Buffer 2 (2x lysis buffer) contained 1 % Triton X-100 in PBS (without CaCl2 and MgCl2).
# Buffer 3 (assay buffer) contained 50 mM potassium phosphate buffer (pH 7.0); 800 mM potassium fluoride; 0.2% BSA (always added fresh).
# On day 1, the cells were seeded in 96-well plates (3x10^4 cells per well hFSHR clone 16 cells (CHO cells stably transfected with the human FSH receptor in 150 µl of medium). The next day, test substance dilutions were made up. For this purpose, all the substances were diluted in ice-cold buffer 1 (with or without hFSH), and the substance dilutions were placed on ice until applied to the cells.
# The cell supernatant was then aspirated off, and the cells were washed 2x with 200 µl of buffer 1. The cells were treated with 60 µl of the appropriate substance concentrations at 37°C for 2h. The cells were then lysed with 60 µl of buffer 2 (put onto the supernatant) (on a plate shaker at RT for 30 min).
# The test conjugates (XL-665 and anti-cAMP cryptate) were diluted in buffer 3 in accordance with the manufacturers' information. The actual mixture for measurement was pipetted into a black 96-well plate (in each case 15 µl of the cell lysate diluted with 35 µl of buffer 1; firstly 25 µl of XL-665 conjugate were pipetted and, after 10 min, 25 µl of the anti-cAMP cryptate were added). This is followed by incubation at RT for 90 minutes. The measurement was carried out in a PheraStar (BMG).
# Tissue culture conditions
# 1) hFSHr clone 16 Ham's F12 PSG 10% FCS 700 µg/ml G 418 (Geneticin) from PAA.
# Dose-effect curve (hFSH) for the human receptor: 1 e-8, 3e-9, 1 e-9, 3e-10, 1e-10, 3e-11, 1e-11, 3e-12 mol/l.
# The test substances were employed in suitable dilutions in the absence (test for agonism) and in the presence of 1 e-9 mol/l hFSH.
# The values of the well ratio were averaged and then entered directly in SigmaPlot versus the concentrations. The maximum and minimum values were determined for each plate, and half the difference is to be regarded as IC50.
row,IC50 [nM],SMILES
1,350,"C=CC1Cc2cc(-c3ccc(OC)c(OC)c3)cc(C(=O)N[C@@H](CO)Cc3c[nH]c4ccccc34)c2O1 (mixture of isomers) [Example 12, 5-(3,4-Dimethoxy-phenyl)-2-vinyl-2,3-dihydro-benzofuran-7-carboxylic acid [(R)-1-hydroxymethyl-2-(1H-indol-3-yl)-ethyl]-amide]"
2,130,"CNC(=O)c1ccc(-c2cc3c(c(C(=O)N[C@@H](CO)Cc4c[nH]c5ccccc45)c2)OCC=C3)cc1Cl [Example 2, 6-(3-Chloro-4-methylcarbamoyl-phenyl)-2H-chromene-8-carboxylic acid [(R)-2-hydroxy-1-(1H-indol-3-ylmethyl)-ethyl]-amide]"
3,450,"Cc1ccccc1C#Cc1cc2c(c(C(=O)N[C@@H](CO)Cc3c[nH]c4ccccc34)c1)OCC=C2 [Example 4, 6-o-Tolylethynyl-2H-chromene-8-carboxylic acid [(R)-1-hydroxymethyl-2-(1H-indol-3-yl)-ethyl]-amide]"
4,14,"CNC(=O)c1cc(F)cc(-c2cc3c(c(C(=O)N[C@@H](CO)Cc4c[nH]c5ccccc45)c2)OC(C)(C)C=C3)c1 [Example 8, 6-(3-Fluoro-5-methylcarbamoyl-phenyl)-2,2-dimethyl-2H-chromene-8-carboxylic acid [(R)-2-hydroxy-1-(1 H-indol-3-yl-methyl)-ethyl]-amide]"
5,150,"CCC1Cc2cc(-c3ccc(OC)c(OC)c3)cc(C(=O)N[C@@H](CO)Cc3c[nH]c4ccccc34)c2O1 (stereo partly drawn) [Example 13, 5-(3,4-Dimethoxy-phenyl)-2-ethyl-2,3-dihydro-benzofuran-7-carboxylic acid [(R)-1-hydroxymethyl-2-(1H-indol-3-yl)-ethyl]-amide]"
6,450,"CNC(=O)c1ccc(-c2cc3c(c(C(=O)N[C@@H](CO)Cc4c[nH]c5ccccc45)c2)OCCO3)cc1Cl [Example 14, 7-(3-Chloro-4-methylcarbamoyl-phenyl)-2,3-dihydro-benzo[1,4]dioxine-5-carboxylic acid [(R)-2-hydroxy-1-(1 H-indol-3-ylmethyl)-ethyl]-amide]"
7,2000,"COc1cc(-c2cc3c(c(C(=O)N[C@@H](CO)Cc4c[nH]c5ccccc45)c2)OCC3)cc(F)c1F [Example 20, 5-(3,4-Difluoro-5-methoxy-phenyl)-2,3-dihydro-benzofuran-7-carboxylic acid [(R)-2-hydroxy-1-(1H-indol-3-ylmethyl)-ethyl]-amide]"
